Source: patent publication US20100292306A1, “Compositions And Methods For The Treatment Of Muscular Dystrophy” (priority 2005, published 2010)
“Also recorded” adds a separate entry of the source.

Key:
cytosolic IκB-α = experiment: Western blot of cytosolic IκB-α in mdx diaphragm after a single PDTC dose; format: in vivo, mdx mice
Description: Cytosolic levels of IκB-α may be determined using Western blot techniques. Cytosolic and nuclear fractions may be obtained from isolated diaphragm muscles using the techniques described in Kumar and Boriek, 2003. Briefly, the muscles may be weighed after removing tendinous components, and frozen and homogenized by mortar and pestle in lysis buffer on ice (1 mg muscle/18 μl lysis buffer containing 10 mM HEPES, 10 mM KCl, 1.5 mM MgCl2, 0.1 mM EDTA, 0.1 mM EGTA, 1 mM dithiothreitol, 0.5 mM phenylmethylsulfonylfluoride, 2.0 μg/ml leupeptin, 2.0 μg/ml aprotinin, 0.5 mg/ml benzamidine, at pH 7.9). To lyse the cells, the ground tissue may be subjected to two freeze-thaw cycles and subsequently vortexed and centrifuged (13,000 rpm, 10 s). […]
Equal amounts of proteins (based on Lowry Assay) from treated vs. untreated cytosolic fractions may be boiled in SDS-PAGE sample buffer for 5 min, applied to 10% SDS-PAGE gel, and blotted onto PVDF (polyvinyl difluoride) membrane. […] After additional washing steps, the antibody complex may be detected by chemiluminescence using the ECL detection reagent (Amersham) and densitometric measurements may also be obtained. […]

mdx TS muscle fibers = experiment: Intracellular recording of resting membrane potential in TS muscle fibers after chronic treatment; format: in vivo, mdx mice
NFκB = experiment: Trans AM assays of NFκB in gastrocnemius muscle preparations; format: in vivo, mdx mice; conditions: chronic PDTC
From the text: The Trans AM assay and corresponding electrophoretic mobility shift assays (EMSA), along with Western Blot analyses of IκB-α (FIG. 1) and total cellular NFκB, are useful for screening compounds that inhibit the NFκB pathway in dystrophic skeletal muscle and identifying new compounds that have corresponding beneficial effects in treating dystrophic subjects.

nuclear NF-κB activation = conditions: long term treatment; Messina et al. (2006); cited from earlier work
mdx gastrocnemius muscle = experiment: Gastrocnemius twitch tension at optimal length
[1] = Observation of viability, side effects and body weight during treatment; conditions: overall sample of PDTC-treated mice
[2] = Series 3 aged mdx mice, P<0.001 vs saline littermates

S=C(S)N1CCCC1 [PDTC, pyrrolidine dithiocarbamate]
period of increased cytosolic IκB-α levels (cytosolic IκB-α; single dose 50 mg/kg ip, adult mdx skeletal muscle): at least 5 h | ambient levels of cytosolic IκB-α (cytosolic IκB-α; single ip dose 50 mg/kg, diaphragm 3 and 5 h after injection, vs vehicle littermates, 50 mg/kg): substantially increased; also recorded: increases | resting potential of TS fibers (mdx TS muscle fibers; 50 mg/kg ip 48-76 days, mature mdx mice Series 2 and Series 3): significantly increases | resting potential (mdx TS muscle fibers; Series 1 daily PDTC, middle and caudal regions, relative to nondystrophic levels): completely restored; also recorded: restores | increase in resting potential, caudal region (mdx TS muscle fibers; Series 2 daily PDTC): not | resting potential, middle region (mdx TS muscle fibers; Series 2 daily PDTC, saline −35.8 mV, P<0.05): −45.4 mV | average resting potential, middle region (mdx TS muscle fibers; Series 3 aged mdx mice, N=9 fibers, 2 mice): −32.2±6.5 mV | resting potential, caudal region (mdx TS muscle fibers; [2]): approximately −45 mV | resting potential, overall (middle, caudal, cephalad combined) (mdx TS muscle fibers; [2]): ~−40 mV | overall resting potential (mdx TS muscle fibers; Series 4: administration initiated at 5 months, read at 6.5-13.5 months, N=64 fibers, 3 TS muscles): -49.3 ± 1.4 mV | average resting potential (mdx TS muscle fibers; Series 4: mdx mouse treated between 5 and 13.5 months, N=22 fibers): −53.3±2.0 mV | proportion of total cellular NFκB in the cytosolic fraction (NFκB): increases | proportion of nuclear NFκB (NFκB; adult mdx): reduces | total cellular NFκB (NFκB; adult mdx): reduces | nuclear NF-κB activation in mdx quadriceps (nuclear NF-κB activation): effectively reduced | improvement in average twitch tension relative to vehicle-injected (mdx gastrocnemius muscle; mature mdx (about 15 months), 50 mg/kg daily, average 72 days): 52% | twitch tension development (mdx gastrocnemius muscle; mature mdx mice, average age 15 months at sacrifice): improves | improvement in twitch tension/gm relative to vehicle-injected (mdx gastrocnemius muscle; mature mdx, just failed to reach statistical significance (p>=0.05)): 45% | increase in twitch tension vs vehicle-treated (mdx gastrocnemius muscle; young adult (2 month old) mdx): 13% | increase in twitch tension/mg muscle weight vs vehicle-treated (mdx gastrocnemius muscle; young adult (2 month old) mdx): 11% | twitch tension development (mdx gastrocnemius muscle; young adult mdx mice): improves | effect on viability [1]: no obvious effect
